# pKi: −log10 of the molar value.
# How the values were obtained:
# [1] = system: Aβ40 and Aβ42; assay: Effect on Aβ levels in APP/PS1 mice; type: in vivo; conditions: compound-treated vs vehicle-treated APP/PS1 transgenics
# Excerpt: Increase of brain and plasma levels of Aβ and appearance of amyloid plaques is an important feature of AD.
# [2] = system: Aβ-induced LTP impairment; assay: LTP rescue test; conditions: assessed at 650 nM
# Procedure: Residual levels of potentiation were averaged during the last 5 min of LTP.
# [3] = system: APP/PS1 mice; assay: Behavioral rescue assays (contextual fear memory, 2-day RAWM reference memory); type: in vivo
# [4] = system: calpain-generated spectrin fragments; assay: Spectrin proteolytic degradation products in hippocampi, western blot; type: in vivo
# Procedure: Studies were performed to determine capability of lowering levels of spectrin proteolytic degradation products in hippocampi from adult animals. Using western blot analysis, prevention of calpain-generated spectrin fragments was checked following i.p. treatment for 12 days with 30a, 33 and 50 at the same concentrations used for PK assessment. The array of vehicle samples was obtained by loading samples with 5, 10, 15, and 20 μg total protein/lane. Samples from compound treated animals were loaded at 15 μg/lane.
# [5] = molecular target: Full length porcine calpain (Sus scrofa (Pig), UniProt P35750); assay: Calpain inhibition kinetics studies (Suc-LLVY-AMC substrate); type: biochemical
# Sequence of Full length porcine calpain (P35750 whole entry): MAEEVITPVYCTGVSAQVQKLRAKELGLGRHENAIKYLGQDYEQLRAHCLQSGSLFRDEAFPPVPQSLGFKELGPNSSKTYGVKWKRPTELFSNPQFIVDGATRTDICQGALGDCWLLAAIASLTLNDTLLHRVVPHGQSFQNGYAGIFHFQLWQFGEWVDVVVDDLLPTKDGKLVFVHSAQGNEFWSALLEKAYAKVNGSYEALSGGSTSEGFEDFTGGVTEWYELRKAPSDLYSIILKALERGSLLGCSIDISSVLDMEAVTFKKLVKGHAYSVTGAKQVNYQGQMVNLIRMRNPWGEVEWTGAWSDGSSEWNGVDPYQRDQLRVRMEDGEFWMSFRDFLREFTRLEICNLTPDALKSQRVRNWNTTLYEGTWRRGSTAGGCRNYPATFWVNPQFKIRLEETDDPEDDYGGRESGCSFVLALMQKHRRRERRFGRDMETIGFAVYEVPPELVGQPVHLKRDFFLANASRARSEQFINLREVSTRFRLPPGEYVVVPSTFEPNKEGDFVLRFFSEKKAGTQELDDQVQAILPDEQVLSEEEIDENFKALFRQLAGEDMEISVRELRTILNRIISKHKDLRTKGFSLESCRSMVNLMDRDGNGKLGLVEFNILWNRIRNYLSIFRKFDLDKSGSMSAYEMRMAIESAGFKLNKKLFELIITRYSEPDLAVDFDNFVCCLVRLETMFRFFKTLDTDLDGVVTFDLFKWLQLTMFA
# Sequence of Full length porcine calpain (P04574 whole entry partner): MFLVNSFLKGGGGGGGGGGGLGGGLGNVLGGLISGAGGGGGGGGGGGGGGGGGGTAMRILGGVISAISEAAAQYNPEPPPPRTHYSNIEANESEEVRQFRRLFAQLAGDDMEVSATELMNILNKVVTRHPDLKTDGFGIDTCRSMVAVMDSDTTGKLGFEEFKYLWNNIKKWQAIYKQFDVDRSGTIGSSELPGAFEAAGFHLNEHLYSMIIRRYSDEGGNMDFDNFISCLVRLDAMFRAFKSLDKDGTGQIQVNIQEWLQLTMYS
# [6] = APP/PS1 mice, daily treatment from 2 until 7 months
smiles,measurement,setting,value
"O=C(O)C1OC1C(=O)N[C@@H](Cc1cscn1)C(=O)Nc1nc(-c2ccc(F)cc2)cs1 (stereo in doubt) [Compound 33, (2S,3S)-3-((S)-1-(4-(4-fluorophenyl)thiazol-2-ylamino)-1-oxo-3-(thiazol-4-yl)propan-2-ylcarbamoyl)oxirane-2-carboxylic acid]",Aβ40 and Aβ42 levels in hippocampi,[1],no difference was detected
same,potency for LTP rescue compared with E64,[2],surpassed E64
same,reference memory,"[3]; 3 month old APP/PS1 mice, 2-day RAWM, daily from 2 months",beneficial
same,contextual fear memory,"[3]; 3 month old APP/PS1 mice, daily i.p. from 2 months",beneficial
same,memory impairment,"[3]; 7 month old APP/PS1 mice, chronic administration",beneficial
same,contextual fear memory,[3]; [6],ameliorated
same,reference memory,[3]; [6],ameliorated
same,prevention of spectrin cleavage by calpains in hippocampi,"[4]; i.p. treatment for 12 days, doses as for PK",dramatically reduced the amount of fragments
same,brain penetration,[4]; inferred from hippocampal spectrin cleavage,capable of effectively penetrating the brain
same,pKi,"[5]; apparent equilibrium constant, full length Cal1, read-out: K1 Calpain1",5.59
same,ki Calpain1,"[5]; inhibition rate, full length Cal1",0.08 s⁻¹
same,relative selectivity for inhibition of Cal1 over papain (in words),"[5]; ki/Ki as measure, compared with E-64",Cal1 selectivity
same,rel Calpain1,[5]; ki/Ki calculated relative to E-64,0.98
same,10^−4 × ki/Ki Calpain1,[5]; mean ± S.D. of triplicate experiments,2.96 ± 0.14

# From patent publication US9403843B2, “Cysteine protease inhibitors and uses thereof” (The Trustees of Columbia University in the City of New York, priority 2012, dated 2016)
